# Source: ChEMBL document CHEMBL4308864, “Targeting tyrosine kinase: Development of acridone - pyrrole - oxindole hybrids against human breast cancer” (2019)
# How the values were obtained:
# Type in all cases: functional
# A498 = assay: Growth inhibition of human A498 cells assessed as cell growth at 10^-5 M incubated for 48 hrs by sulforhodamine B assay relative to control; conditions: A498, 48 h, read-out: Activity
# DU-145 = assay: Growth inhibition of human DU145 cells assessed as cell growth at 10^-5 M incubated for 48 hrs by sulforhodamine B assay relative to control; conditions: DU-145, 48 h, read-out: Activity
# SK-MEL-28 = assay: Growth inhibition of human SK-MEL-28 cells assessed as cell growth at 10^-5 M incubated for 48 hrs by sulforhodamine B assay relative to control; conditions: SK-MEL-28, 48 h, read-out: Activity
# CCRF-CEM = assay: Growth inhibition of human CCRF-CEM cells assessed as cell growth at 10^-5 M incubated for 48 hrs by sulforhodamine B assay relative to control; conditions: read-out: Activity
# NCI/ADR-RES = assay: Growth inhibition of human NCI/ADR-RES cells assessed as cell growth at 10^-5 M incubated for 48 hrs by sulforhodamine B assay relative to control; conditions: read-out: Activity
# 786-0 = assay: Growth inhibition of human 786-0 cells assessed as cell growth at 10^-5 M incubated for 48 hrs by sulforhodamine B assay relative to control; conditions: 786-0, 48 h, read-out: Activity
# Hs-578T = assay: Growth inhibition of human Hs578T cells assessed as cell growth at 10^-5 M incubated for 48 hrs by sulforhodamine B assay relative to control; conditions: read-out: Activity
# T47D = assay: Growth inhibition of human T47D cells at 10^-5 M incubated for 48 hrs by sulforhodamine B assay relative to control; conditions: read-out: GI
# SW-620 = assay: Growth inhibition of human SW620 cells assessed as cell growth at 10^-5 M incubated for 48 hrs by sulforhodamine B assay relative to control; conditions: SW-620, 48 h, read-out: Activity
# MDA-MB-435 = assay: Growth inhibition of human MDA-MB-435 cells assessed as cell growth at 10^-5 M incubated for 48 hrs by sulforhodamine B assay relative to control; conditions: MDA-MB-435, 48 h, read-out: Activity
# SF-268 = assay: Growth inhibition of human SF268 cells assessed as cell growth at 10^-5 M incubated for 48 hrs by sulforhodamine B assay relative to control; conditions: SF-268, 48 h, read-out: Activity
# EKVX = assay: Growth inhibition of human EKVX cells assessed as cell growth at 10^-5 M incubated for 48 hrs by sulforhodamine B assay relative to control; conditions: read-out: Activity
# HCT-15 = assay: Growth inhibition of human HCT15 cells assessed as cell growth at 10^-5 M incubated for 48 hrs by sulforhodamine B assay relative to control; conditions: HCT-15, 48 h, read-out: Activity
# SK-MEL-2 = assay: Growth inhibition of human SK-MEL-2 cells assessed as cell growth at 10^-5 M incubated for 48 hrs by sulforhodamine B assay relative to control; conditions: SK-MEL-2, 48 h, read-out: Activity
# MCF7 = assay: Growth inhibition of human MCF7 cells at 10^-5 M incubated for 48 hrs by sulforhodamine B assay relative to control; conditions: MCF7, 48 h, read-out: GI
# MDA-MB-468 = assay: Growth inhibition of human MDA-MB-468 cells at 10^-5 M incubated for 48 hrs by sulforhodamine B assay relative to control; conditions: MDA-MB-468, 48 h, read-out: GI
# MDA-MB-231 = assay: Growth inhibition of human MDA-MB-231 cells assessed as cell growth at 10^-5 M incubated for 48 hrs by sulforhodamine B assay relative to control; conditions: MDA-MB-231, 48 h, read-out: Activity
# K562 = assay: Growth inhibition of human K562 cells assessed as cell growth at 10^-5 M incubated for 48 hrs by sulforhodamine B assay relative to control; conditions: K562, 48 h, read-out: Activity
# SF-295 = assay: Growth inhibition of human SF295 cells assessed as cell growth at 10^-5 M incubated for 48 hrs by sulforhodamine B assay relative to control; conditions: SF-295, 48 h, read-out: Activity
# NCI-H226 = assay: Growth inhibition of human NCI-H226 cells assessed as cell growth at 10^-5 M incubated for 48 hrs by sulforhodamine B assay relative to control; conditions: NCI-H226, 48 h, read-out: Activity
# HCC 2998 = assay: Growth inhibition of human HCC2998 cells assessed as cell growth at 10^-5 M incubated for 48 hrs by sulforhodamine B assay relative to control; conditions: HCC 2998, 48 h, read-out: Activity
# NCI-H322M = assay: Growth inhibition of human NCI-H322M cells assessed as cell growth at 10^-5 M incubated for 48 hrs by sulforhodamine B assay relative to control; conditions: read-out: Activity
# NCI-H522 = assay: Growth inhibition of human NCI-H522 cells assessed as cell growth at 10^-5 M incubated for 48 hrs by sulforhodamine B assay relative to control; conditions: NCI-H522, 48 h, read-out: Activity
# OVCAR-3 = assay: Growth inhibition of human OVCAR3 cells assessed as cell growth at 10^-5 M incubated for 48 hrs by sulforhodamine B assay relative to control; conditions: OVCAR-3, 48 h, read-out: Activity
# NCI-H23 = assay: Growth inhibition of human NCI-H23 cells assessed as cell growth at 10^-5 M incubated for 48 hrs by sulforhodamine B assay relative to control; conditions: NCI-H23, 48 h, read-out: Activity
# OVCAR-5 = assay: Growth inhibition of human OVCAR5 cells assessed as cell growth at 10^-5 M incubated for 48 hrs by sulforhodamine B assay relative to control; conditions: OVCAR-5, 48 h, read-out: Activity
# RPMI-8226 = assay: Growth inhibition of human RPMI8226 cells assessed as cell growth at 10^-5 M incubated for 48 hrs by sulforhodamine B assay relative to control; conditions: RPMI-8226, 48 h, read-out: Activity
# LOX IMVI = assay: Growth inhibition of human LOXIMVI cells assessed as cell growth at 10^-5 M incubated for 48 hrs by sulforhodamine B assay relative to control; conditions: read-out: Activity
# OVCAR-4 = assay: Growth inhibition of human OVCAR4 cells assessed as cell growth at 10^-5 M incubated for 48 hrs by sulforhodamine B assay relative to control; conditions: OVCAR-4, 48 h, read-out: Activity
# PC-3 = assay: Growth inhibition of human PC3 cells assessed as cell growth at 10^-5 M incubated for 48 hrs by sulforhodamine B assay relative to control; conditions: PC-3, 48 h, read-out: Activity
# NCI-H460 = assay: Growth inhibition of human NCI-H460 cells assessed as cell growth at 10^-5 M incubated for 48 hrs by sulforhodamine B assay relative to control; conditions: NCI-H460, 48 h, read-out: Activity
# HCT-116 = assay: Growth inhibition of human HCT116 cells assessed as cell growth at 10^-5 M incubated for 48 hrs by sulforhodamine B assay relative to control; conditions: HCT-116, 48 h, read-out: Activity
SMILES,growth at 10 µM (A498) [%],growth at 10 µM (DU-145) [%],growth at 10 µM (SK-MEL-28) [%],growth at 10 µM (CCRF-CEM) [%],growth at 10 µM (NCI/ADR-RES) [%],growth at 10 µM (786-0) [%],growth at 10 µM (Hs-578T) [%],inhibition of growth at 10 µM (T47D) [%],growth at 10 µM (SW-620) [%],growth at 10 µM (MDA-MB-435) [%],growth at 10 µM (SF-268) [%],growth at 10 µM (EKVX) [%],growth at 10 µM (HCT-15) [%],growth at 10 µM (SK-MEL-2) [%],inhibition of growth at 10 µM (MCF7) [%],inhibition of growth at 10 µM (MDA-MB-468) [%],growth at 10 µM (MDA-MB-231) [%],growth at 10 µM (K562) [%],growth at 10 µM (SF-295) [%],growth at 10 µM (NCI-H226) [%],also measured
O=C1Nc2ccccc2/C1=C/c1cccn1CCCCn1c2ccccc2c(=O)c2ccccc21,109,94.2,105,52.8,73.9,97,86.3,95,98.8,92.7,83.1,86.1,31.7,84,96,49,64.7,59.5,101,75.2,growth at 10 µM (HCC 2998): 40.5%; growth at 10 µM (NCI-H322M): 101%; growth at 10 µM (NCI-H522): 68.4%; growth at 10 µM (OVCAR-3): 86.7%; growth at 10 µM (NCI-H23): 77.4%; growth at 10 µM (OVCAR-5): 77.9%; growth at 10 µM (RPMI-8226): 33.5%; growth at 10 µM (LOX IMVI): 82.5%; growth at 10 µM (OVCAR-4): 65.8%; growth at 10 µM (PC-3): 55.1%; growth at 10 µM (NCI-H460): 93.7%; growth at 10 µM (HCT-116): 74.2%
O=C1Nc2ccccc2/C1=C/c1cccn1CCCCCn1c2ccccc2c(=O)c2ccccc21,108,97.9,88.1,44.9,60.9,105,90.5,98,100,93.6,83.3,71.8,28.9,84,99,62,69.3,52.1,93.1,70,growth at 10 µM (HCC 2998): 42.5%; growth at 10 µM (NCI-H322M): 98.8%; growth at 10 µM (NCI-H522): 66.3%; growth at 10 µM (OVCAR-3): 70.9%; growth at 10 µM (NCI-H23): 69.6%; growth at 10 µM (OVCAR-5): 82.6%; growth at 10 µM (RPMI-8226): 22.1%; growth at 10 µM (LOX IMVI): 80.3%; growth at 10 µM (OVCAR-4): 57.1%; growth at 10 µM (PC-3): 42%; growth at 10 µM (NCI-H460): 95.9%; growth at 10 µM (HCT-116): 69.8%
O=C1NC(=O)C(=Cc2cccn2CCCCCCn2c3ccccc3c(=O)c3ccccc32)C(=O)N1,93.1,103,111,93.8,92.9,97.9,106,25,96.9,102,97,100,90.3,107,24,5,94.6,74.7,97.6,89.5,growth at 10 µM (HCC 2998): 101%; growth at 10 µM (NCI-H322M): 94.1%; growth at 10 µM (NCI-H522): 92.7%; growth at 10 µM (OVCAR-3): 103%; growth at 10 µM (NCI-H23): 84.2%; growth at 10 µM (OVCAR-5): 98.3%; growth at 10 µM (RPMI-8226): 73.9%; growth at 10 µM (LOX IMVI): 89.7%; growth at 10 µM (OVCAR-4): 95.4%; growth at 10 µM (PC-3): 87.7%; growth at 10 µM (NCI-H460): 101%; growth at 10 µM (HCT-116): 71.2%
O=C1/C(=C\c2cccn2CCCCn2c3ccccc3c(=O)c3ccccc32)c2ccccc2N1c1c(Cl)cccc1Cl,116,111,111,103,101,103,103,33,105,103,94,88.8,83.5,105,68,28,98.4,91.5,98.8,89.5,growth at 10 µM (HCC 2998): 46.7%; growth at 10 µM (NCI-H322M): 103%; growth at 10 µM (NCI-H522): 90%; growth at 10 µM (OVCAR-3): 118%; growth at 10 µM (NCI-H23): 101%; growth at 10 µM (OVCAR-5): 104%; growth at 10 µM (RPMI-8226): 97.4%; growth at 10 µM (LOX IMVI): 98.1%; growth at 10 µM (OVCAR-4): 78.3%; growth at 10 µM (PC-3): 78.9%; growth at 10 µM (NCI-H460): 104%; growth at 10 µM (HCT-116): 98.4%
O=C1/C(=C\c2cccn2CCCCCn2c3ccccc3c(=O)c3ccccc32)c2ccccc2N1c1c(Cl)cccc1Cl,106,111,113,100,97.3,104,101,72,95.7,108,95.7,94.6,59.8,101,87,39,97.5,97.6,103,91.6,growth at 10 µM (HCC 2998): 66.3%; growth at 10 µM (NCI-H322M): 110%; growth at 10 µM (NCI-H522): 84.9%; growth at 10 µM (OVCAR-3): 99.1%; growth at 10 µM (NCI-H23): 98%; growth at 10 µM (OVCAR-5): 94.5%; growth at 10 µM (RPMI-8226): 92.3%; growth at 10 µM (LOX IMVI): 96.6%; growth at 10 µM (OVCAR-4): 62.3%; growth at 10 µM (PC-3): 73.2%; growth at 10 µM (NCI-H460): 99.7%; growth at 10 µM (HCT-116): 85.9%
O=C1NC(=O)C(=Cc2cccn2CCCCn2c3ccccc3c(=O)c3ccccc32)C(=O)N1,88.1,92.2,95.8,64.1,88.4,86.6,85.1,43,87.9,79.9,85.7,100,81.4,92.9,43,40,82.5,58.9,78.5,88.7,growth at 10 µM (HCC 2998): 100%; growth at 10 µM (NCI-H322M): 97.3%; growth at 10 µM (NCI-H522): 70.5%; growth at 10 µM (OVCAR-3): 96.6%; growth at 10 µM (NCI-H23): 81.7%; growth at 10 µM (OVCAR-5): 91.8%; growth at 10 µM (RPMI-8226): 49.4%; growth at 10 µM (LOX IMVI): 82.6%; growth at 10 µM (OVCAR-4): 87.2%; growth at 10 µM (PC-3): 86.3%; growth at 10 µM (NCI-H460): 90.2%; growth at 10 µM (HCT-116): 76.7%
